According to patent US20250114350A1, “INHIBITORS OF […] AS ANTIFUNGAL AGENTS” (Regents of the University of Minnesota, priority 2023, published 2025):
In brackets after ≈: the same amount, converted by molar mass. Entries after “also recorded” stand apart in the source; their conditions may differ. Read-outs that look alike come from different tables or passages of the source.

Legend:
C. neoformans biofilms = assay: Biofilm inhibition; assay type: cell-based, Cryptococcus neoformans
[1] = tested on: Gfp-Ras1 localization in C. neoformans; assay: Ras1 cellular localization by fluorescent microscopy; assay type: cell-based, Cryptococcus neoformans; settings: sub-lethal concentrations; 0.78 μM (sub-inhibitory)
Protocol: (§1) FIG. 3. CnFTase is the in vivo target of 2f. (A) Ras cellular mislocalization, assessed by epifluorescent microscopy (1000×). Bar=10 μm. Top. […] Bottom. Control patterns of Ras localization with wild-type (left) and ram1Δ deletion (right) strains expressing mCherry-Ras1. […] A C. neoformans strain transformed with the galactose-regulated pGAL7-RAM1 over-expression construct was incubated with glucose (uninduced, bottom), and galactose (induced, top). Antifungal activity was assessed by the relative size of the zone of fungal growth inhibition surrounding sterile discs impregnated with 10 μL of 20 mM 2f dissolved in DMSO (bottom disk) or DMSO alone (top disc).
Compound 2f inhibited FTase activity in vivo. […] Both effects are consistent with CnFTase being the target of Compound 2f, as expected.
Microscopy. […] A drug-free control sample contained 1% DMSO. Ras1 localization in a ram1Δ mutant strain was determined in a similar manner: a ram1Δ mutant and wild-type strain, each expressing mCherry-Ras1 under a constitutive promoter (CBN121 and SKE17) were incubated overnight in YPD medium at 30° C., diluted to OD600 0.1 in YPD, then incubated for 24 hours at 37° C. All cells were visualized and imaged by fluorescent microscopy at 1000× magnification using a Zeiss Imager A1 microscope and Zeiss Axio-Cam MRM digital camera. […]

C. neoformans [2] = assay: Minimum inhibitory concentration (MIC): disc diffusion and broth microdilution; settings: Cryptococcus neoformans
Protocol: Antifungal activity was determined by measuring minimum inhibitory concentrations (MIC) of C. neoformans by two methods: a solid medium disc diffusion assay and broth microdilution assay.
Disc diffusion assay. Overnight cultures of C. neoformans (about 18 hours) were normalized to OD600 0.6, diluted 1/10, and 200 μL of each sample were spread onto either a YPD or YPGal (yeast extract-peptone medium with 3% galactose) plate using sterile glass beads. After drying, 10 μL of compound or solvent control (DMSO) was added to sterile 6 mm filter discs on each plate. Plates were incubated for 48 hours at 37° C.
Minimum inhibitory concentration (MIC) assays. C. neoformans: Overnight cultures (˜18 h) of C. neoformans strains incubated in YPD medium were diluted to 500 cells/ml in RPMI medium buffered with MOPS. Cells were aliquoted (200 μL/well) in black-wall, clear-bottom 96-wells plates (Greiner). Compound stock solutions in DMSO ranged from 9 μM to 20 mM, and added to 200 μL cell suspension aliquoted in 96-well plates. Final aqueous concentrations ranged from 200 μM to 0.09 μM, limiting DMSO to 1%. After 48-hr incubation at 37° C. or 30° C. for 48 h, 10% AlamarBlue (BioRad) was added. The end-point fluorescence intensity of reduced AlamarBlue was measured using a fluorescence plate reader (FLUORStar Optima plate reader) at the time point the indicator turned from blue to pink in healthy control cells.^51 Assays were performed in duplicate.

CnFTase = CnFTase (Cryptococcus neoformans, UniProt J9VSJ6+T2BPA1); assay: CnFTase steady-state kinetics fit to competitive/uncompetitive/mixed inhibition models
Protocol: (§2) CnFTase activity assay. […] Final CnFTase concentrations (from 5× or 10× stocks in 20 mM Tris-HCl pH7.5, 20 mM NaCl, 5 μM ZnCl2, 1 mM TCEP, 1 mg/mL BSA): A, 20 nM; B: 4.4, 6.7, 10 nM triplets. […] For experiments that included phosphate, pH 7.5 stock was added to the desired final concentration. […] Data for determining ^1μMIC50 values (condition A) was collected in triplicate. Initial rates, vo, were extracted by fitting a straight line to the initial to tmax seconds of the reaction progress curves, where tmax values were selected by inspection and entered into curator tables for automated analysis. 1μMIC50 were determined by fitting a single-site Langmuir ligand-binding isotherm to the dependence of vo on inhibitor concentration (2, see below). All other experiments (condition B) all other experiments (condition B) used three different CnFTase concentrations, collecting progress curves as a function of FPP, inhibitor, and phosphate concentrations. The resulting triplet of progress curves was used to extract vo values automatically by minimizing
where χk^2 is the squared difference of the calculated and observed emissions in the k^th iteration of the minimizer, fi the initial fraction (constrained in the interval [0.5,1]) of the T time points of the progress curve, Di the dilution factor of the i^th progress curve (0.44:0.66:1 for condition B), S0ik the fluorescence emission intensity of the i^th progress curve at t=0 at the k^th (this value is refined individually using a one-dimensional golden section search^52 with fi and v0 values of the k−1 iteration), and ^obsSji, the observed intensity of the i^th progress curve at the j^th time point. The target function 1 is minimized using conjugate gradients with vo and fi as the degrees of freedom. The resulting rates were then fit to binding polynomials describing the inhibition mechanism (5-13, see below).
Binding polynomials for inhibition models. The initial steady-state rates of a reaction involving a single-substrate x, and inhibitor y are given by
Three binding polynomials were used:
where Ka, KC, and KU are the affinities of the enzyme for substrate, competitive inhibitor, and uncompetitive inhibitor, respectively.
Solvers for non-ideal conditions. In non-ideal conditions 9 is false, and the total protein concentration needs to be included as a degree of freedom, requiring the roots of the following multivariate polynomial to be found (see below for derivation):

[3] = tested on: J774A.1 macrophage-like murine cells; settings: mouse, 24 h
Protocol: Macrophage cytotoxicity assays. […] 2 μL of the serially diluted compound were transferred to a 96-well plate containing 200 μL DMEM (100× dilution). J774A.1, a macrophage-like murine cell line, was incubated in DMEM (Dulbecco's Modified Eagle Medium, Sigma-Aldrich) to 70% confluency, harvested, washed in PBS, then transferred to black, clear-bottom 96-well plates (Greiner) at 10^5 cells/well. Plates were incubated overnight at 37° C. and 5% CO2. The macrophage medium covering the J774A.1 monolayer was replaced with 100 μL of DMEM containing the serially diluted inhibitors (50× dilution) and incubated for 24 h at 37° C. and 5% CO2. Macrophage viability was assessed at 24 h by the addition of 10% AlamarBlue and incubating for 3 h at 37° C. and 5% CO2 prior to fluorescence measurement (FLUORStar Optima plate reader). Assays were performed in duplicate.

[4] = tested on: C. neoformans strain over-expressing CnFTase (pGAL7-RAM1); assay: Disc diffusion assay with galactose-inducible RAM1 over-expression; assay type: cell-based, Cryptococcus neoformans; settings: galactose induced; discs with 10 μL of 20 mM
Protocol: as §1
Molecular Biology. […] To induce C. neoformans mating, strains of opposite mating types were co-cultured on MS medium at 25° C. for seven days (Murashige, T, et al., Physiol Plantarum, 1962, 15, 473-497). A C. neoformans strain with a galactose-inducible RAM1 allele (CBN482) was similarly created with primers designed to create an overlap construct comprising the C. neoformans RAM1 5′ sequence-neomycin resistance cassette-GAL7 promoter-RAM1 coding sequence (FIG. 9) to precisely replace the RAM1 promoter with the GAL7 galactose inducible when introduced into the H99 genome by biolistic transformation.
Disc diffusion assay. […]

mammalian FTase = mammalian FTase (Homo sapiens, UniProt P49354+P49356); assay: Inhibition of mammalian FTase; assay type: biochemical
[5] = target: CnFTase (C. neoformans farnesyl transferase, α/β heterodimer) (Cryptococcus neoformans, UniProt J9VSJ6+T2BPA1); assay: CnFTase activity assay: farnesylation of a dansylated (fluorescent) peptide, inhibitor concentration giving half-maximal enzyme rates at 1 μM FPP (1μMIC50); settings: read-out: CnFTase IC50 (1μMIC50), condition A: 20 nM CnFTase, dansyl-GCVVM 0.62 μM, Tris-HCl pH 7.5, ZnCl2 12.5 μM, 2.5% DMSO, room temperature, triplicate
Protocol: as §2
Single-site binding isotherms. Signals, S, resulting from a binding reaction were fit to
where α and β are the baselines associated with the apo-protein and its ligand complex, respectively, and y fractional occupancy of the binding site
If x is an inhibitor concentration, then IC50=Ka^−1. […] In general, baseline signals, σ, (α or β) can be constant, or linear functions of ligand concentration x

[6] = tested on: Schizosaccharomyces pombe; assay: S. pombe MIC assay (efflux effects); settings: for MIC: Schizosaccharomyces pombe
C. neoformans [7] = settings: Hast et al. 2011; cited from earlier work
[8] = tested on: C. neoformans FTase (CnFTase); settings: Hast et al. 2011; cited from earlier work

Chain of CnFTase (J9VSJ6 entry or part of it): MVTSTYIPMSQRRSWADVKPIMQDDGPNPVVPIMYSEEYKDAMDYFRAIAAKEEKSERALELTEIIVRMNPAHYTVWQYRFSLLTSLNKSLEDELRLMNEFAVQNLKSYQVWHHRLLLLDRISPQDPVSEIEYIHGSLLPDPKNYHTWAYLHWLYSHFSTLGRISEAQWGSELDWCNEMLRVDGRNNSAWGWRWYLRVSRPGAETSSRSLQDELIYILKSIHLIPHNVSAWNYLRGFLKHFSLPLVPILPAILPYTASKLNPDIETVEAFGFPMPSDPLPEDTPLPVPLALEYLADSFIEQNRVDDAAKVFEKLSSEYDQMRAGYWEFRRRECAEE
Chain of CnFTase (T2BPA1 entry or part of it): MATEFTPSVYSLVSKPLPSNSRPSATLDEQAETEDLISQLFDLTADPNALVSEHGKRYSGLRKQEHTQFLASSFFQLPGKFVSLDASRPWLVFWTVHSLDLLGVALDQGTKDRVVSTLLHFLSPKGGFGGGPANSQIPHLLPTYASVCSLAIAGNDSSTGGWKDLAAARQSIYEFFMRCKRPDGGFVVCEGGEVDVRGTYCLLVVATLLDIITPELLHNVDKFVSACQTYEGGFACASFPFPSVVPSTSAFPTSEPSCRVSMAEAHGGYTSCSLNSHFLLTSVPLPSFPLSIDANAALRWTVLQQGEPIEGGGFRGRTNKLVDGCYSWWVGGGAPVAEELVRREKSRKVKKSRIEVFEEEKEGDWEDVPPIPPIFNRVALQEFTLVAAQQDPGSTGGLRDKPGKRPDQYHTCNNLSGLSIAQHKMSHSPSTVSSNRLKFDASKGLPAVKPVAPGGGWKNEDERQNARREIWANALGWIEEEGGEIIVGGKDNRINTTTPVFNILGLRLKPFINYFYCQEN
Chain of mammalian FTase (P49356 whole entry, one chain of several): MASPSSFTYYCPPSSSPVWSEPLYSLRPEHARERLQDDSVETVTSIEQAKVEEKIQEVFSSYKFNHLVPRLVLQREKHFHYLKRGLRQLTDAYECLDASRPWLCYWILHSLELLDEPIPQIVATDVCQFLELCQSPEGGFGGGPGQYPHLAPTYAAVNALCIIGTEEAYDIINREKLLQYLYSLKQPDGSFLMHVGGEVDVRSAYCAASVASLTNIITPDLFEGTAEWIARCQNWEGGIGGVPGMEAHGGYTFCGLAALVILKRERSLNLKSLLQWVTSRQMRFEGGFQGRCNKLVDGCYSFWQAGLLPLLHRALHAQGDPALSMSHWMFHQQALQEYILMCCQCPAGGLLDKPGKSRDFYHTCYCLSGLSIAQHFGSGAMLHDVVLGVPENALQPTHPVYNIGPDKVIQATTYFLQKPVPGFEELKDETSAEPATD
Chain of CnFTase (C. neoformans farnesyl transferase, α/β heterodimer) (J9VSJ6 entry or part of it): as the sequence (J9VSJ6 entry or part of it) above
Chain of CnFTase (C. neoformans farnesyl transferase, α/β heterodimer) (T2BPA1 entry or part of it): as the sequence (T2BPA1 entry or part of it) above

Row | Compound | biofilm inhibition (C. neoformans biofilms) | Gfp-Ras1 localization [1] | MIC (C. neoformans [2]) [µM] | improvement of competitive affinity in the H state (CnFTase; H state vs L state) [fold] | competitive affinity better than the uncompetitive value (CnFTase; H state, 10 mM phosphate) [fold] | Ki (CnFTase; HKU, uncompetitive inhibitor affinity (dissociation constant), H state, 10 mM phosphate (H state)) [nM] | Ki (CnFTase; LKU, uncompetitive inhibitor affinity (dissociation constant), L state, absence of phosphate (L state)) [nM] | Ki (CnFTase; read-out: HKC, competitive inhibitor affinity (dissociation constant), H state, 10 mM phosphate (H state)) [nM] | Ki (CnFTase; read-out: LKC, competitive inhibitor affinity (dissociation constant), L state, absence of phosphate (L state)) [nM] | inhibition mode (CnFTase; with respect to FPP) | MIC [3] [µM] | effect of CnFTase (Ram1) over-expression on antifungal activity [4] | IC50 on mammalian FTase, worse than on the fungal enzyme (mammalian FTase) | IC50 [5] [nM] | MIC improvement in efflux-defective strain ([6]; MJ-1682 vs wild-type) | MIC ([6]; efflux-defective strain MJ-1682) [µM] | MIC ([6]; wild-type S. pombe) [µM] | antifungal activity (C. neoformans [7]) | inhibition of C. neoformans FTase (CnFTase) [8]
1 | CCCC[C@H]1CN(c2cccc(OC(F)(F)F)c2)C(=O)CN1Cc1cncn1Cc1ccc(Br)cc1 [Compound 2f, (S)-4-((1-(4-Bromobenzyl)-1H-imidazol-5-yl)methyl)-5-butyl-1-(3-(trifluoromethoxy)phenyl)piperazin-2-one] | inhibits C. neoformans biofilms | remains in the cytoplasm; also recorded: does not localize to the plasma membrane | 3 to 6 (≈ 1.7 to 3.39 µg/mL) | ~100 | ~170 | 500 | 750 | 3 | 320 | mixture of two binding modes: uncompetitive like Compound 2q, and a competitive mode that displaces FPP | 200 (≈ 113 µg/mL) | negates 2f antifungal activity; also recorded: negated antifungal activity | about 30 fold | 190 ± 60 | eight-fold | 1.5 (≈ 0.848 µg/mL) | 12.5 (≈ 7.07 µg/mL) | – | –
2 | N#Cc1ccc(Cn2cncc2CN2CCN(c3cccc(Cl)c3)C(=O)C2)cc1 [L-778,123] | – | – | – | – | – | – | – | – | – | – | – | – | – | – | – | – | – | did not have antifungal activity | modest inhibition
